Measurements from patent publication US20260092074A1, “Annelated Pyridines as Steroidogenesis Inhibitors, Preparation Method and Use Thereof” (Guangzhou Vinnocent Pharmaceutical Limited, priority 2022, published 2026).
pIC50: −log10 of the molar value.

Tests used:
human CYP11B1 = target: T1, human CYP11B1 (Homo sapiens, UniProt P15538); assay: Inhibition of hCYP11B1 in transfected V79 cells; format: cell-based; conditions: hamster V79 cells expressing human CYP11B1; substrate 11-deoxycortisol 200 nM
T1 construct: expressed in transfected cells
T1 sequence (P15538 25-503): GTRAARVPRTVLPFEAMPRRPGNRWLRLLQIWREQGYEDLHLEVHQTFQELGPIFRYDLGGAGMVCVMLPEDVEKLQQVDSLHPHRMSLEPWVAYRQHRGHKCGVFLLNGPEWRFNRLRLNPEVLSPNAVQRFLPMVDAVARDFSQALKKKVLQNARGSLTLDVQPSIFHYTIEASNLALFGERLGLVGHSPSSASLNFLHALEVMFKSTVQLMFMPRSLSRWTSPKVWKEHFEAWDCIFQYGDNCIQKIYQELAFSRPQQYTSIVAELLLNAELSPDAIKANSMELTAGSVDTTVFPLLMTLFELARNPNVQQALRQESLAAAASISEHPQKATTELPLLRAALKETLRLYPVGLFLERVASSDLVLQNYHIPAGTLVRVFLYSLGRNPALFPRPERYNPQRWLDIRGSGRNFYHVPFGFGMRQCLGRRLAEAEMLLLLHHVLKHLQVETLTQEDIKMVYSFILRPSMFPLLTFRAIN
In short: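 V79 hamster cells stably expressing human CYP11B1 and rat NADPH-P450 reductase were preincubated with compounds for 2 h. 11-Deoxycortisol (200 nM) was then added as substrate for 30 min before ethyl acetate quench. Substrate and product were quantified by LC-MS/MS or HPLC at 260 nm, and IC50 was derived from percent inhibition.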

human CYP11B2 = target: T2, human CYP11B2 (Homo sapiens, UniProt P19099); assay: Inhibition of hCYP11B2 in transfected V79 cells; format: cell-based; conditions: hamster V79 cells expressing human CYP11B2; substrate 11-deoxycorticosterone 200 nM
T2 construct: expressed in transfected cells
T2 sequence (P19099 25-503): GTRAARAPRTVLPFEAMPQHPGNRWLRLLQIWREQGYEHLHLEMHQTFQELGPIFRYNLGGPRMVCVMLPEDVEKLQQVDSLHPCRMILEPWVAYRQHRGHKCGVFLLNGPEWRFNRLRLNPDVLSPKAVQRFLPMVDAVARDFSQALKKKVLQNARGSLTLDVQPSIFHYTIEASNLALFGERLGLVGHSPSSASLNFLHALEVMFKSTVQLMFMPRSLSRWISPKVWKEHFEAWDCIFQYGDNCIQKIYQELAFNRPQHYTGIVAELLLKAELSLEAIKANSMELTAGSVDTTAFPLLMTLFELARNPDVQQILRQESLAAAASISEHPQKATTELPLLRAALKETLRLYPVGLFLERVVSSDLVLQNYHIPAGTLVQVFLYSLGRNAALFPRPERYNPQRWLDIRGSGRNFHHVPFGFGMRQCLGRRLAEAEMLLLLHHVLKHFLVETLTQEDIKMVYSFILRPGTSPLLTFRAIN
In short: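 Hamster V79 cells stably co-expressing human CYP11B2 and rat NADPH-P450 reductase were pre-incubated with compounds for 2 hours, then given 200 nM 11-deoxycorticosterone for 30 minutes before ethyl acetate quench. Substrate and product were quantified by LC-MS/MS or HPLC at 260 nm, and IC50 was derived from percent inhibition.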

Row | SMILES | pIC50 (human CYP11B1) | pIC50 (human CYP11B2)
1 | COc1ccc(CN2CC(C(=O)N3CCOc4c(-c5ccc(C#N)cc5)cncc43)C2)cc1 [O83, 4-(4-(1-(4-Methoxybenzyl)azetidine-3-carbonyl)-3,4-dihydro-2H-pyrido[4,3-b][1,4]oxazin-8-yl)benzonitrile] | 6.95 | 9.00
2 | COc1ccc(S(=O)(=O)N2CC(S(=O)(=O)N3CCOc4c(-c5ccc(C#N)cc5)cncc43)C2)cc1 [O118, 4-(4-((1-((4-Methoxyphenyl)sulfonyl)azetidin-3-yl)sulfonyl)-3,4-dihydro-2H-pyrido[4,3-b][1,4]oxazin-8-yl)benzonitrile] | 7.41 | 8.57
3 | O=C(C1CN(Cc2cccc(F)c2)C1)N1CCOc2c(-c3cc4ccc(Cl)cc4[nH]3)cncc21 [O91, (8-(6-Chloro-1H-indol-2-yl)-2,3-dihydro-4H-pyrido[4,3-b][1,4]oxazin-4-yl)(1-(3-fluorobenzyl)azetidin-3-yl)methanone] | 5.38 | 7.04
4 | CCC(=O)N[C@@H]1CCCc2c(-c3ccc4c(c3)CCC(=O)N4C)cncc21 [Baxdrostat, reference compound] | 5.51 | 6.90
5 | N#CN1CC(S(=O)(=O)N2CCSc3c(-c4cc5cc(Cl)ccc5o4)cncc32)C1 [S64, 3-((8-(5-Chlorobenzofuran-2-yl)-2,3-dihydro-4H-pyrido[4,3-b][1,4]thiazin-4-yl)sulfonyl) azetidine-1-carbonitrile] | 6.12 | 8.35
6 | N#Cc1ccc(-c2cncc3c2SCCN3S(=O)(=O)C2CN(Cc3ccc(F)cc3)C2)cc1 [S82, 4-(4-((1-(4-Fluorobenzyl)azetidin-3-yl)sulfonyl)-3,4-dihydro-2H-pyrido[4,3-b][1,4]thiazin-8-yl)benzonitrile] | 8.03 | 9.40
7 | COc1ccc(S(=O)(=O)N2CCSc3c(-c4ccsc4)cncc32)cc1 [S36, 4-((4-Methoxyphenyl)sulfonyl)-8-(thiophen-3-yl)-3,4-dihydro-2H-pyrido[4,3-b][1,4]thiazine] | 7.52 | 8.25
8 | N#Cc1ccc(-c2cncc3c2OCCN3C(=O)Cc2cccc(C(F)(F)F)c2)cc1 [O46, 4-(4-(2-(3-(Trifluoromethyl)phenyl)acetyl)-3,4-dihydro-2H-pyrido[4,3-b][1,4]oxazin-8-yl)benzonitrile] | 6.62 | 8.24
9 | N#Cc1ccc(-c2cncc3c2CCN3S(=O)(=O)c2cccc3cccnc23)cc1 [C11, 4-(1-(Quinolin-8-ylsulfonyl)-2,3-dihydro-1H-pyrrolo[2,3-c]pyridin-4-yl)benzonitrile] | 9.15 | 9.00
10 | O=C(c1ccc(F)cc1)n1ccc2c(-c3cc4ccccc4o3)cncc21 [E32, (4-(Benzofuran-2-yl)-1H-pyrrolo[2,3-c]pyridin-1-yl)(4-fluorophenyl)methanone] | 6.57 | 7.89
11 | COc1cccc(C(=O)N2CC(S(=O)(=O)N3CCSc4c(-c5ccc(C#N)cc5)cncc43)C2)c1 [S73, 4-(4-((1-(3-Methoxybenzoyl)azetidin-3-yl)sulfonyl)-3,4-dihydro-2H-pyrido[4,3-b][1,4]thiazin-8-yl)benzonitrile] | 7.74 | 9.52
12 | N#Cc1ccc(-c2cncc3c2ccn3C(=O)c2cccc(C(F)(F)F)c2)cc1 [E23, 4-(1-(3-(Trifluoromethyl)benzoyl)-1H-pyrrolo[2,3-c]pyridin-4-yl)benzonitrile] | 7.10 | 9.10
13 | N#Cc1ccc(-c2cncc3c2OCCN3S(=O)(=O)c2ccc([N+](=O)[O-])cc2)cc1 [O9, 4-(4-((4-Nitrophenyl)sulfonyl)-3,4-dihydro-2H-pyrido[4,3-b][1,4]oxazin-8-yl)benzonitrile] | 8.96 | 9.96
14 | N#Cc1ccc(-c2cncc3c2SCCN3Cc2cccc(F)c2)cc1 [S1, 4-(4-(3-Fluorobenzyl)-3,4-dihydro-2H-pyrido[4,3-b][1,4]thiazin-8-yl)benzonitrile] | < 5.30 | 6.35
15 | N#Cc1ccc(-c2cncc3c2OCCN3C(=O)C2CCN(S(=O)(=O)c3cccc(F)c3)CC2)cc1 [O55, 4-(4-(1-((3-Fluorophenyl)sulfonyl)piperidine-4-carbonyl)-3,4-dihydro-2H-pyrido[4,3-b][1, 4]oxazin-8-yl)benzonitrile] | 6.94 | 8.68
16 | N#Cc1ccc(-c2cncc3c2OCCN3C(=O)C2CN(S(=O)(=O)c3ccc(F)cc3)C2)cc1 [O60, 4-(4-(1-((4-Fluorophenyl)sulfonyl)azetidine-3-carbonyl)-3,4-dihydro-2H-pyrido[4,3-b][1,4]oxazin-8-yl)benzonitrile] | 8.60 | 9.22
17 | N#Cc1ccc(-c2cncc3c2CCN3C(=O)c2cccc([N+](=O)[O-])c2)cc1 [C27, 4-(1-(3-Nitrobenzoyl)-2,3-dihydro-1H-pyrrolo[2,3-c]pyridin-4-yl)benzonitrile] | 6.93 | 8.64
18 | N#Cc1ccc(-c2cncc3c2OCCN3S(=O)(=O)c2cccc(F)c2)cc1 [O3, 4-(4-((3-Fluorophenyl)sulfonyl)-3,4-dihydro-2H-pyrido[4,3-b][1,4]oxazin-8-yl)benzonitrile] | 10.00 | 9.85
19 | O=C(c1ccc(F)cc1)n1ccc2c(-c3ccc4ncsc4c3)cncc21 [E36, (4-(Benzo[d]thiazol-6-yl)-1H-pyrrolo[2,3-c]pyridin-1-yl)(4-fluorophenyl)methanone] | 5.70 | 7.54
20 | O=C(C1CN(Cc2cccc(F)c2)C1)N1CCOc2c(-c3cc4cc(Cl)ccc4o3)cncc21 [O95, (8-(5-Chlorobenzofuran-2-yl)-2,3-dihydro-4H-pyrido[4,3-b][1,4]oxazin-4-yl)(1-(3-fluorobenzyl)azetidin-3-yl)methanone] | 5.34 | 7.39
21 | Cc1cccc(C(=O)N2CCc3c(-c4ccc(C#N)cc4)cncc32)c1 [C40, 4-(1-(3-Methylbenzoyl)-2,3-dihydro-1H-pyrrolo[2,3-c]pyridin-4-yl)benzonitrile] | 6.45 | 7.54
22 | N#Cc1ccc(-c2cncc3c2CCN3C(=O)Cc2ccccc2[N+](=O)[O-])cc1 [C70, 4-(1-(2-(2-Nitrophenyl)acetyl)-2,3-dihydro-1H-pyrrolo[2,3-c]pyridin-4-yl)benzonitrile] | 6.97 | 7.92
23 | N#Cc1ccc(-c2cncc3c2OCCN3C(=O)c2ccc(C(F)(F)F)cc2)cc1 [O24, 4-(4-(4-(Trifluoromethyl)benzoyl)-3,4-dihydro-2H-pyrido[4,3-b][1,4]oxazin-8-yl)benzonitrile] | 7.07 | 7.71
24 | O=C(c1ccccc1F)N1CCc2c(-c3ccoc3)cncc21 [C56, (2-Fluorophenyl)(4-(furan-3-yl)-2,3-dihydro-1H-pyrrolo[2,3-c]pyridin-1-yl)methanone] | 6.28 | 6.99
25 | COc1ccc(C(=O)N2CCSc3c(-c4ccc(C#N)cc4)cncc32)cc1 [S6, 4-(4-(4-Methoxybenzoyl)-3,4-dihydro-2H-pyrido[4,3-b][1,4]thiazin-8-yl)benzonitrile] | 5.76 | 7.28
26 | COc1ccc(C(=O)N2CC(S(=O)(=O)N3CCSc4c(-c5ccc(C#N)cc5)cncc43)C2)cc1 [S72, 4-(4-((1-(4-Methoxybenzoyl)azetidin-3-yl)sulfonyl)-3,4-dihydro-2H-pyrido[4,3-b][1,4]thiazin-8-yl)benzonitrile] | 7.64 | 8.68
27 | N#Cc1ccc(-c2cncc3c2CCN3C(=O)Cc2ccccc2F)cc1 [C67, 4-(1-(2-(2-Fluorophenyl)acetyl)-2,3-dihydro-1H-pyrrolo[2,3-c]pyridin-4-yl)benzonitrile] | 6.56 | 8.19
28 | N#Cc1ccc(S(=O)(=O)N2CCSc3c(-c4ccc5occc5c4)cncc32)cc1 [S44, 4-((8-(Benzofuran-5-yl)-2,3-dihydro-4H-pyrido[4,3-b][1,4]thiazin-4-yl)sulfonyl)benzonitrile] | 6.11 | 7.34
29 | N#Cc1ccc(-c2cncc3c2ccn3C(=O)c2ccc(F)cc2)cc1 [E30, 4-(1-(4-Fluorobenzoyl)-1H-pyrrolo[2,3-c]pyridin-4-yl)benzonitrile] | 7.96 | 10.00
